In patent publication US20030236276A1, “Pyrrolo[2.1-a]isoquinoline derivatives” (priority 2001, published 2003):

What was measured:
PDE 10a = biological target: T1, PDE 10a (Homo sapiens, UniProt Q9Y233); assay: In vitro enzyme inhibition assay (PDE 10a, scintillation proximity, [3H]cAMP substrate); format: biochemical; conditions: full-length recombinant PDE 10a, crude Sf9 cell lysate; 60 minutes, room temperature
T1 construct: Full-length recombinant PDE 10a was expressed in Sf9 insect cells; made in house; host or cells: Sf9 insect cells (baculovirus, Bac-to-Bac)
T1 sequence (Q9Y233 1-779 isoform Q9Y233-1): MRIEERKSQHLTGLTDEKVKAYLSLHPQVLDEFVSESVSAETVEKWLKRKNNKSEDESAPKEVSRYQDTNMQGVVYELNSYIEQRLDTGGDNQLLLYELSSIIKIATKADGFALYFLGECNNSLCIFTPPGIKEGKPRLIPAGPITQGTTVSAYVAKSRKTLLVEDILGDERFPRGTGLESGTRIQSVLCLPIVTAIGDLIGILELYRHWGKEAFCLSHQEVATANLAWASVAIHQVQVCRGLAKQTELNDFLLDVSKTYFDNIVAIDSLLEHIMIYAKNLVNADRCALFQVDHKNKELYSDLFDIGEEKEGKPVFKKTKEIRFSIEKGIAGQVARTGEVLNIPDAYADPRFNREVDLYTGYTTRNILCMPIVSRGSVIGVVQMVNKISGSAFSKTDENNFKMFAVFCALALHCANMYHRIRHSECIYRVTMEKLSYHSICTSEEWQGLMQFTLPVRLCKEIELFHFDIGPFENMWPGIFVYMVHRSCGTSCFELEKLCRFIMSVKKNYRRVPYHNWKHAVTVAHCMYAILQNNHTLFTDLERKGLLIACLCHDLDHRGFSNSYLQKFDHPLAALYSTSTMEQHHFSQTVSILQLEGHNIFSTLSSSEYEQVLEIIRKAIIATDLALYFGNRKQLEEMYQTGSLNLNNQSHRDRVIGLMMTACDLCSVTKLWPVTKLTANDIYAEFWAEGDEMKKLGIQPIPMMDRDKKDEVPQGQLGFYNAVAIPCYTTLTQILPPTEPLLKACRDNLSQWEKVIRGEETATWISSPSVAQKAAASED
Description: In vitro Enzyme Inhibition Assay:
Full-length recombinant PDE 10a was expressed in Sf9 insect cells (Invitrogen, Carlsbad, Calif., U.S.A.) using the Bac-to-Bac™ Baculovirus Expression System (Life Technologies, Gaithersburg, Md., U.S.A.). 48 hours post infection, cells were harvested and resuspended in 20 mL (per 1L culture) Lysis Buffer (50 mM Tris-HCl, pH 7.4, 50 mM NaCl, 1 mM MgCl2, 1.5 mM EDTA, 10% glycerol plus 20 μL Protease Inhibitor Cocktail Set III [CalBiochem, La Jolla, Calif., U.S.A.]). Cells were sonicated at 4° C. for 1 minute and centrifuged at 10,000 RPM for 30 minutes at 4° C. Supernatant was removed and stored at −20° C. for activity assays.
The test compounds were serially diluted in DMSO using two-fold dilutions to stock concentrations ranging typically from 200 μM to 1.6 μM (final concentrations in the assay range from 4 μM to 0.032 μM). 96-well assay isoplates (Wallac Inc., Atlanta, Ga., U.S.A.) were loaded with 2 μL of the serially diluted individual test compounds followed by 50 μL of a dilution of crude recombinant PDE 10a-containing sf9 cell lysate. The dilution of the lysate was selected such that less than 70% of the substrate is converted during the later incubation (typical dilution: 1:10000; dilution buffer: 50 mM Tris/HCl pH 7.5, 8.3 mM MgCl2, 1.7 mM EDTA, 0.2% BSA). The substrate, [5′,8-^3H] adenosine 3′,5′-cyclic phosphate (1 μCi/μL; Amersham Pharmacia Biotech., Piscataway, N.J., U.S.A.), was diluted 1:2000 in assay buffer (assay buffer: 50 mM Tris/HCl pH 7.5, 8.3 mM MgCl2, 1.7 mM EDTA) to give a final working concentration of 0.0005 μCi/μL. The enzymatic assay was initiated by addition of 50 μL (0.025 μCi) of diluted substrate. Reactions were incubated at room temperature for 60 minutes and terminated by addition of 25 μL of 18 mg/mL Yttrium Scintillation Proximity Beads (Amersham Pharmacia Biotech., Piscataway, N.J., U.S.A.). Plates were sealed and incubated at room temperature for 60 minutes. Plates were read for 30 seconds/well using a Microbeta counter (Wallac Inc., Atlanta, Ga., U.S.A.). The IC50 values were determined by plotting compound concentration versus percent inhibition.

[1] = system: MDA-MB-231 human breast carcinoma cells; assay: In vitro proliferation inhibition assay (LDH activity, 72 hours); format: cell-based; conditions: MDA-MB-231 cells; for inhibition at 10 µM: read-out: % inhibition at a concentration of 10 μM; for inhibition at 2 µM: read-out: % inhibition at a concentration of 2 μM
Description: In vitro Proliferation Inhibition Assay:
MDA-MB-231 human breast carcinoma cells (ATCC #HTB26) were cultured in standard growth medium (DMEM), supplemented with 10% heat-inactivated FBS, 10 mM HEPES, 2 mM glutamine, 100 U/mL penicillin, and 100 μg/mL streptomycin) at 37° C. in 5% CO2 (vol/vol) in a humidified incubator. Cells were plated at a density of 3000 cells per well in 100 μL growth medium in a 96 well culture dish. 24 hours after plating, lactate dehydrogenase (LDH) activity was determined using the Cytotox 96 Non-radioactive Cytotoxicity Kit (Promega, Madison Wis., U.S.A.) to yield T0h LDH values. Briefly, cells were lysed with the addition of 200 μL of Lysis Buffer (included in the Promega Kit) and lysates were further diluted 1:50 in Lysis Buffer. 50 μL of diluted cell lysate were transferred to a fresh 96 well culture plate. The assay was initiated with the addition of 50 μL of substrate per well. Color development was allowed to proceed for 10-15 minutes. The assay was terminated with the addition of 50 μL of Stop Solution (included in the Promega Kit). Optical densities were determined spectrophotometrically at 490 nm in a 96 well plate reader (SpectraMax 250, Molecular Devices, Sunnyvale, Calif., U.S.A.).
Test compounds were dissolved in 100% DMSO to prepare 10 mM stocks. Stocks were further diluted 1:250 in growth medium to yield working stocks of 40 μM test compound in 0.4% DMSO. Test compounds were serially diluted in growth medium containing 0.4% DMSO to maintain constant DMSO concentrations for all wells. 50 μL of fresh growth medium and 50 μL of diluted test compound were added to each culture well to give a final volume of 200 μL. The cells with and without individual test compounds were incubated for 72 hours at which time LDH activity was measured to yield T72h values. Optionally, the IC50 values can be determined with a least squares analysis program using compound concentration versus percent inhibition.
% Inhibition=[1−(T72h test−T0h)/(T72h ctrl−T0h)]×100
T72h test=LDH activity at 72 hours in the presence of test compound
T72h ctrl=LDH activity at 72 hours in the absence of test compound
T0h=LDH activity at Time Zero

| SMILES | IC50 (PDE 10a) [nM] | inhibition at 10 µM [1] [%] | inhibition at 2 µM [1] [%] |
| --- | --- | --- | --- |
| CCOC(=O)c1c(C(C)C)c(C)n2c1-c1cc(OC)c(OC)cc1CC2 [Example 5] | 370 | 87 |  |
| CCOC(=O)c1c(-c2cccc3ncc(C)cc23)c(C)n2c1-c1cc(OC)c(OC)cc1CC2 [Example 7] | 140 | 85 |  |
| CCOC(=O)c1c(-c2cn(C(C)=O)c3ccccc23)c(C)n2c1-c1cc(OC)c(OC)cc1CC2 [Example 8] | 94 | 84 |  |
| CCOC(=O)c1c(-c2c[nH]c3ccc(OC)cc23)c(C)n2c1-c1cc(OC)c(OC)cc1CC2 [Example 12] | 365 |  | 73 |
| CCOC(=O)c1c(-c2cccc3cc[nH]c23)c(C)n2c1-c1cc(OC)c(OC)cc1CC2 [Example 49] | 110 |  | 91 |
| CCOC(=O)c1c(-c2cccc3c(C(=O)C4CC4)c[nH]c23)c(C)n2c1-c1cc(OC)c(OC)cc1CC2 [Example 68, Ethyl 2-[3-(cyclopropylcarbonyl)-1H-indol-7-yl]-8,9-dimethoxy-3-methyl-5,6-dihydropyrrolo[2,1-a]isoquinoline-1-carboxylate] |  |  | 43 |
| CCOC(=O)c1c(-c2ccc3[nH]cc(C(C)=O)c3c2)c(C)n2c1-c1cc(OC)c(OC)cc1CC2 [Example 72] |  |  | 81 |
| CCOC(=O)c1c(-c2ccc3c(c2)CCN3S(C)(=O)=O)c(C)n2c1-c1cc(OC)c(OC)cc1CC2 [Example 88] |  |  | 40 |

Continued, in another order:

| IC50 (PDE 10a) [nM] | SMILES | inhibition at 10 µM [1] [%] | inhibition at 2 µM [1] [%] |
| --- | --- | --- | --- |
| 71 | CCOC(=O)c1c(-c2cn(C)c3ccccc23)c(C)n2c1-c1cc(OC)c(OC)cc1CC2 [Example 23] |  | 90 |
| 220 | CCOC(=O)c1c(-c2c[nH]c3c(OC)cccc23)c(C)n2c1-c1cc(OC)c(OC)cc1CC2 [Example 46, Ethyl-2-(1H-7-methoxy-indol-3-yl)-8,9-dimethoxy-3-methyl-5,6-dihydropyrrolo[2,1-a]isoquinoline-1-carboxylate] |  | 90 |
| 330 | CCOC(=O)c1c(-c2c[nH]c3ccc(Cl)cc23)c(C)n2c1-c1cc(OC)c(OC)cc1CC2 [Example 50] |  | 77 |
| 220 | CCOC(=O)c1c(-c2c[nH]c3cc(F)ccc23)c(C)n2c1-c1cc(OC)c(OC)cc1CC2 [Example 52] |  | 81 |
| 68 | CCOC(=O)c1c(-c2cn(Cc3ccccc3)c3ccccc23)c(C)n2c1-c1cc(OC)c(OC)cc1CC2 [Example 56] |  | 64 |
| 1500 | CCOC(=O)c1c(-c2cccc3c2ccn3CC)c(C)n2c1-c1cc(OC)c(OC)cc1CC2 [Example 57, Ethyl 2-(1-ethyl-1H-indol-4-yl)-8,9-dimethoxy-3-methyl-5,6-dihydropyrrolo[2,1-a]-isoquinoline-1-carboxylate] |  | 89 |
| 200 | CCOC(=O)c1c(-c2cccc3c2ccn3CCC#N)c(C)n2c1-c1cc(OC)c(OC)cc1CC2 [Example 61] |  | 90 |
| 170 | CCOC(=O)c1c(-c2cccc3c(C(=O)c4ccccc4)c[nH]c23)c(C)n2c1-c1cc(OC)c(OC)cc1CC2 [Example 71] |  | 72 |
| 150 | CCOC(=O)c1c(-c2ccc3ncoc3c2)c(C)n2c1-c1cc(OC)c(OC)cc1CC2 [Example 76, Ethyl 2-(1,3-benzoxazol-6-yl)-8,9-dimethoxy-3-methyl-5,6-dihydropyrrolo[2,1-a]isoquinoline-1-carboxylate] |  | 63 |
| 100 | CCCNC(=O)N1CCc2cc(-c3c(C(=O)OCC)c4n(c3C)CCc3cc(OC)c(OC)cc3-4)ccc21 [Example 81] |  | 89 |
| < 30 | CCOC(=O)c1c(-c2ccc3c(c2)CCN3S(=O)(=O)c2ccccc2)c(C)n2c1-c1cc(OC)c(OC)cc1CC2 [Example 87] |  | 95 |
